Experiments:
Nalm-6 (B-lineage ALL) = assay: MTT cytotoxicity assay, Nalm-6; type: cell-based; conditions: Homo sapiens, 24-36 hours at 37° C., 0.1 to 250 μM
Procedure: (§1) Cytotoxicity of various compounds against tumor cells was performed using the MTT (3-[4,5-[…]]-2,5-diphenyl tetrazolium bromide) assay (Boehringer Mannheim Corp., Indianapolis, Ind.). Unless otherwise specified, all cell lines were obtained from the American Type Culture Collection (ATCC). Briefly, exponentially growing cells were seeded into a 96-well plate at a density of 2.5×10^4 cells/well and incubated for 36 hours at 37° C. prior to drug exposure. On the day of treatment, culture medium was carefully aspirated from the wells and replaced with fresh medium containing the indicated compound at concentrations ranging from 0.1 to 250 μM. Triplicate wells were used for each treatment.
(§2) Human leukemic cell lines (NALM-6, MOLT-3) glioblastoma cells (U373) and human breast tumor cell lines (BT20 and MDA-MB-231) were obtained from the American Type Culture Collection and maintained as a continuous cell line in Dulbecco's modified Eagles's medium supplemented with 10% fetal bovine serum and antibiotics.
(§3) The cells were incubated with the various compounds for 24-36 hours at 37° C. in a humidified 5% CO2 atmosphere. To each well, 10 μl of MTT (0.5 mg/ml final concentration) was added and the plates were incubated at 37° C. for 4 hours to allow MTT to form formazan crystals by reacting with metabolically active cells. The formazan crystals were solubilized overnight at 37° C. in a solution containing 10% SDS in 0.01 M HCl. The absorbence of each well was measured in a microplate reader (Labsystems) at 540 nm and a reference wavelength of […]. To translate the OD540 values into the number of live cells in each well, the OD540 values were compared to those on standard OD540 --versus--cell number curves generated for each cell line. The percent survival was calculated using the formula: [formula]
(§4) The IC50 values were calculated by non-linear regression analysis and are shown below in Tables 1-6.

BT-20 (breast cancer) = assay: MTT cytotoxicity assay, BT-20; type: cell-based; conditions: Homo sapiens, 24-36 hours at 37° C., 0.1 to 250 μM
Procedure: as §1, §2, §3, §4

U-373 (glioblastoma) = assay: MTT cytotoxicity assay, U-373; type: cell-based; conditions: Homo sapiens, U373 MG, 24-36 hours at 37° C., 0.1 to 250 μM
Procedure: as §1, §2, §3, §4

primary leukemia cells = assay: MTT cytotoxicity in primary cancer cells from six children with leukemia; type: cell-based, human; conditions: 0 to 50 μM, all six patients
Procedure: as §1
The cells were incubated with the various compounds for 24-36 hours at 37° C. in a humidified 5% CO2 atmosphere. […] The absorbence of each well was measured in a microplate reader (Labsystems) at 540 nm and a reference wavelength of 690 um. […] The percent survival was calculated using the formula: [formula]
The cytotoxicity of HI-131 against primary cancer cells was evaluated in leukemia cells taken from six children (FIG. 1A), using the MTT assay described for Example 3. […] Percent survival was calculated as described for Example 3 and plotted against the HI-131 concentration used in the experiment. […]

Molt-3 (T-lineage ALL) = assay: MTT cytotoxicity assay, Molt-3; type: cell-based, human; conditions: MTT, 24-36 hours at 37° C., 0.1 to 250 μM
Procedure: as §1, §2, §3, §4

primary leukemic cells = assay: Apoptosis induction, primary leukemic cells (in situ TUNNEL, confocal microscopy); type: cell-based, human
Procedure: (§5) The ability of HI-131 to induce apoptosis cells was evaluated in human leukemia in NALM-6 cells and primary leukemic cells from 2 patients. Cells were treated with 50 μM compound HI-131 for 24 hours. After incubation, the cells were harvested and analyzed for apoptosis by in situ TUNNEL analysis and confocal laser scanning microscopy as described in Sudbeck et al., 1999, Clin Cancer Res., 5:1589-82. Controls were treated with vehicle alone.
(§6) Induction of apoptosis was further evaluated in primary leukemic cells and established NALM-6 and MOLT-3 cell lines following treatment with HI-131.

PC-3 (prostate cancer) = assay: MTT cytotoxicity assay, PC-3; type: cell-based; conditions: 24-36 hours at 37° C., 0.1 to 250 μM
Procedure: as §1, §3, §4

MOLT-3 cells = assay: Apoptosis induction, MOLT-3 cells; type: cell-based; conditions: Homo sapiens, MOLT-3, 24 h; vs vehicle control (FIG. 3)
Procedure: as §5, §6

Work on `CCCCCCCCCCCCSC[C@H](NC(C)=O)C(=O)CCl` [HI-131, N-Ac-S-dodecyl-Cys chloromethyl ketone] yielded an IC50 (Nalm-6 (B-lineage ALL)) of 2 µM, an IC50 (BT-20 (breast cancer)) of 10 µM and an IC50 (U-373 (glioblastoma)) of 35.1 µM. The “cytotoxic effect in primary cancer cells” value (primary leukemia cells) was “dose dependent cytotoxic effect”, the IC50 (Molt-3 (T-lineage ALL)) was 2.3 µM and the “apoptosis induction (TUNNEL/confocal), primary leukemic cells” value (primary leukemic cells; 50 μM, 24 hours, 2 patients) was “greatly induced apoptosis”. For the same compound, the fold induction at 50 µM (primary leukemic cells; Homo sapiens, 24 h, typical, vs vehicle control (FIG. 3)) was ~4, the “rate of apoptosis, primary leukemic cell samples” value (primary leukemic cells; all but one of the samples (FIG. 3)) was “increased dramatically” and the IC50 (PC-3 (prostate cancer)) was 22.1 µM. The fold induction at 50 µM (MOLT-3 cells) was ~20.
